{"source": "ChEMBL document CHEMBL1201862", "about": "“PubChem BioAssay data set” (2004)", "key": {"[1]": {"test": "inhibition of ADAM10 peptide cleavage – biochemical, FRET peptide substrate, recombinant human ADAM10, selectivity assay for ADAM17 exosite inhibitor project, dose response (AID 743259);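 note: ADAM10 enzyme cleaving a FRET peptide substrate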"}, "[2]": {"target": "Disintegrin and metalloproteinase domain-containing protein 17 (Homo sapiens, UniProt P78536)", "sequence (P78536 whole entry, the tested form may be a part)": "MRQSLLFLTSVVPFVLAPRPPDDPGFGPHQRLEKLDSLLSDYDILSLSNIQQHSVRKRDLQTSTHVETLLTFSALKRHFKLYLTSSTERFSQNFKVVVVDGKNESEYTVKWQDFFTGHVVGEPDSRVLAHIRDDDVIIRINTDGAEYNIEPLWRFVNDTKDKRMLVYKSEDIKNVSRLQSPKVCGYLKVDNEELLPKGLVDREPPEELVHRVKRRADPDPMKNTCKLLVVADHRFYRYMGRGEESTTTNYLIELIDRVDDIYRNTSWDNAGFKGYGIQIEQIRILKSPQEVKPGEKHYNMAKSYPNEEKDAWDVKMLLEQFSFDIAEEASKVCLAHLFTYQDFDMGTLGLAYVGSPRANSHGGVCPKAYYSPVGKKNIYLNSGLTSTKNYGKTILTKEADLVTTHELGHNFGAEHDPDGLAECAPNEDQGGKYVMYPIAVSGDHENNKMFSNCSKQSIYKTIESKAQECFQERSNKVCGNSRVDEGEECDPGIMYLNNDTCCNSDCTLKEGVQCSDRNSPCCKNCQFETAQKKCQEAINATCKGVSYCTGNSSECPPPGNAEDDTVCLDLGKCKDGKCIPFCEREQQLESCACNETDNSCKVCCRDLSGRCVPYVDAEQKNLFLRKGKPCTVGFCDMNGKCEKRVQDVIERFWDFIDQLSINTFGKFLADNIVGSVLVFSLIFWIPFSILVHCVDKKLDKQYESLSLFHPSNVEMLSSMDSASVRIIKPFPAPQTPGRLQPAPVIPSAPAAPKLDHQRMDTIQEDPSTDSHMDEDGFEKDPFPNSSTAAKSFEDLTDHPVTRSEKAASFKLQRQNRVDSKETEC", "test": "exosite inhibitors of ADAM17, dose response, biochemical (AID 743260)"}, "[3]": {"target": "Voltage-dependent T-type calcium channel subunit alpha-1H (Homo sapiens, UniProt O95180)", "format": "functional"}, "[4]": {"target": "Cytochrome P450 3A4 (Homo sapiens, UniProt P08684)", "sequence (P08684 whole entry)": "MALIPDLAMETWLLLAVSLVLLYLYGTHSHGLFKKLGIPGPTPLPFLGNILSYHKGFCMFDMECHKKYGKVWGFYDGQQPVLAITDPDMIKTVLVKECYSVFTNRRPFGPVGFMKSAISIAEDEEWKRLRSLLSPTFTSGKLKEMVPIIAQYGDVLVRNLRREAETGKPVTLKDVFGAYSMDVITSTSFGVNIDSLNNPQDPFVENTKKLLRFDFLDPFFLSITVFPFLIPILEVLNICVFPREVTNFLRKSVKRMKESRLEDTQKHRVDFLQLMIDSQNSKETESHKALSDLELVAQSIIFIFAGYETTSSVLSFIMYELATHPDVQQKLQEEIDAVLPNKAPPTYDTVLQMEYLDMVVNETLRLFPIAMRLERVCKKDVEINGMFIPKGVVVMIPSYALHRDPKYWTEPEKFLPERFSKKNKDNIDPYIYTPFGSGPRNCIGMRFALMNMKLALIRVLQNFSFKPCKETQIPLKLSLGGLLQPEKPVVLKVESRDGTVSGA"}, "[5]": {"target": "Kallikrein-7 (Homo sapiens, UniProt P49862)", "sequence (P49862 whole entry)": "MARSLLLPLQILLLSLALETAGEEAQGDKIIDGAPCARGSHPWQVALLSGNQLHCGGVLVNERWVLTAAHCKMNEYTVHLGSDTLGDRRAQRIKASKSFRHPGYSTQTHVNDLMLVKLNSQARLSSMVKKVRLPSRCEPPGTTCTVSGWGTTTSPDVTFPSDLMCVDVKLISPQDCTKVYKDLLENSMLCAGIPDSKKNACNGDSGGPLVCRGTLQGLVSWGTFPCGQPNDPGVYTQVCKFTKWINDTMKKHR", "test": "Fluorescence Intensity-based biochemical primary high throughput dose response assay to identify activators of kallikrein-7 (K7) zymogen."}, "[6]": {"target": "T1, Protein skinhead-1 (Caenorhabditis elegans, UniProt P34707)", "T1 sequence (P34707 whole entry)": "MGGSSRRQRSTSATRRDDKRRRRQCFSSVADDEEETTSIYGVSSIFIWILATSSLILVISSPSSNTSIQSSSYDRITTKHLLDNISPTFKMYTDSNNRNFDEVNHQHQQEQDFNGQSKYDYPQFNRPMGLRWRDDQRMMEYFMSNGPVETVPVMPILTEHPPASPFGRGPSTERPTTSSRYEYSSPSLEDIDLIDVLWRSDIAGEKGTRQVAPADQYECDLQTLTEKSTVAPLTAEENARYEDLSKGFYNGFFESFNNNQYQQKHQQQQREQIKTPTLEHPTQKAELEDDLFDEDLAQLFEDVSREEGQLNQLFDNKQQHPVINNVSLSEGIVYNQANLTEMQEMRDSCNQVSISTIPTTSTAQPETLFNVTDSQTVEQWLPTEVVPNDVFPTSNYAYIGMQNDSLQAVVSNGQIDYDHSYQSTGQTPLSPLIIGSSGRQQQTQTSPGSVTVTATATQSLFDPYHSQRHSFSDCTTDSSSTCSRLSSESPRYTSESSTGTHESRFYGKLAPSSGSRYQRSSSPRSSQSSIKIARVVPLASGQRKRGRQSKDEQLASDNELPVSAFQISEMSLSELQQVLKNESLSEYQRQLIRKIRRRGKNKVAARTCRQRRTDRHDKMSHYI", "format": "functional"}, "[7]": {"test": "Counterscreen for activators of the function of SWI/SNF related, matrix associated, actin dependent regulator of chromatin, subfamily a, member 2 (SMARCA2, BRM): Luminescence-based cell-based high throughput dose response assay to identify non-selective compounds using the VP16 reporter assay.", "format": "functional"}, "[8]": {"target": "SWI/SNF-related matrix-associated actin-dependent regulator of chromatin subfamily A member 2 (Homo sapiens, UniProt P51531)", "sequence (P51531 whole entry)": "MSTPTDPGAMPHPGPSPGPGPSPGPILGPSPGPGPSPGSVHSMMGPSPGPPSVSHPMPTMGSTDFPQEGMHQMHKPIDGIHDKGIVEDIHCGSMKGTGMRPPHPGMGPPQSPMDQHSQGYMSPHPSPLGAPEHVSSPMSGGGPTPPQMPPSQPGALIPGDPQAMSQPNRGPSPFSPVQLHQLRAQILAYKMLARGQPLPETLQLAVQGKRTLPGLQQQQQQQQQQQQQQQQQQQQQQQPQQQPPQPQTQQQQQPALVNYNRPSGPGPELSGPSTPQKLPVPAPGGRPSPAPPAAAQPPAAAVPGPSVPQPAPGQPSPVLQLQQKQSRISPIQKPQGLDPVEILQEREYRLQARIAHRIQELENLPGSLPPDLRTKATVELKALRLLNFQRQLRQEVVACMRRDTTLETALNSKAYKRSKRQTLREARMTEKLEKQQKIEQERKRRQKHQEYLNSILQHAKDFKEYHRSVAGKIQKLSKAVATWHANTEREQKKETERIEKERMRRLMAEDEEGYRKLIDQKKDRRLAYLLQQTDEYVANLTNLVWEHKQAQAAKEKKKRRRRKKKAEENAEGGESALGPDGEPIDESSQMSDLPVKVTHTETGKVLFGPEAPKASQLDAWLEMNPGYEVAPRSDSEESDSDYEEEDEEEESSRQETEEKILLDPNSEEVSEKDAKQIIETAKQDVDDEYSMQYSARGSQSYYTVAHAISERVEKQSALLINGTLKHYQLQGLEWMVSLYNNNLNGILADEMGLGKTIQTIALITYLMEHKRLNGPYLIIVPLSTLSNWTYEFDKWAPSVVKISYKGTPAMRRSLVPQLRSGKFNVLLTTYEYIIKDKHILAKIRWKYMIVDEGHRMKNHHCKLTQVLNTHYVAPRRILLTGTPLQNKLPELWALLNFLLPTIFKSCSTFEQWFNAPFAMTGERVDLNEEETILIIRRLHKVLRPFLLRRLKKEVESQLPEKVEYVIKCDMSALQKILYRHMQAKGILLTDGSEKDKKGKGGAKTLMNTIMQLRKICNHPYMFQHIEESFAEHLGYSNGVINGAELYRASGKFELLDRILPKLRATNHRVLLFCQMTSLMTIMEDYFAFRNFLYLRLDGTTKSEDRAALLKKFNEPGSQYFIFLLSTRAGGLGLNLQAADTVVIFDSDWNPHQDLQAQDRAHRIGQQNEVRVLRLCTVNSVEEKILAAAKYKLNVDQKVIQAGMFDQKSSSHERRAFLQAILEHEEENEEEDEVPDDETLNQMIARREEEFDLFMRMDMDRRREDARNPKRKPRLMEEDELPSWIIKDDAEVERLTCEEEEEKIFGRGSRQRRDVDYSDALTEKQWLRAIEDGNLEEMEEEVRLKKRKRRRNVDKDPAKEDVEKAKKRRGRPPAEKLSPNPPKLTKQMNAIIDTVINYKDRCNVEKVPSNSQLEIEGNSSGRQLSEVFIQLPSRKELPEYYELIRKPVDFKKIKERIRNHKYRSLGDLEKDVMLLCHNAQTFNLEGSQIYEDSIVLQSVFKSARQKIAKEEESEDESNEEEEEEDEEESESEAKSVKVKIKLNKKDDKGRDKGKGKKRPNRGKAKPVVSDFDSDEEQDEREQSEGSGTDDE", "test": "Luminescence-based cell-based high throughput dose response assay to identify activators of the function of SWI/SNF related, matrix associated, actin dependent regulator of chromatin, subfamily a, member 2 (SMARCA2, BRM).", "format": "functional"}, "[9]": {"target": "5-hydroxytryptamine receptor 2A (Mus musculus, UniProt P35363)", "sequence (P35363 whole entry)": "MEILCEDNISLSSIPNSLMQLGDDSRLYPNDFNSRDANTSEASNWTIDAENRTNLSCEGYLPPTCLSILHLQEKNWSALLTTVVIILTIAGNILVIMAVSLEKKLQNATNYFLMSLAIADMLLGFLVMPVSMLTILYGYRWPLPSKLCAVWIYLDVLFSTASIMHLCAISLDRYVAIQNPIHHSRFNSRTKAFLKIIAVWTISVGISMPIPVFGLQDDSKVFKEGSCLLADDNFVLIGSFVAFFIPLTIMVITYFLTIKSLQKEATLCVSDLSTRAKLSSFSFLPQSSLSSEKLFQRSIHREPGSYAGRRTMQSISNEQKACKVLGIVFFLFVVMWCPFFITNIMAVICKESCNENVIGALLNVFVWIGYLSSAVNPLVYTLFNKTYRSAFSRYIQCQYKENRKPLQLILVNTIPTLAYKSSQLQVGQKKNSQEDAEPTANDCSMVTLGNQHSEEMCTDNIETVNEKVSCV", "format": "functional, cell-based"}, "[10]": {"target": "Mu-type opioid receptor (Homo sapiens, UniProt P35372)", "sequence (P35372 whole entry)": "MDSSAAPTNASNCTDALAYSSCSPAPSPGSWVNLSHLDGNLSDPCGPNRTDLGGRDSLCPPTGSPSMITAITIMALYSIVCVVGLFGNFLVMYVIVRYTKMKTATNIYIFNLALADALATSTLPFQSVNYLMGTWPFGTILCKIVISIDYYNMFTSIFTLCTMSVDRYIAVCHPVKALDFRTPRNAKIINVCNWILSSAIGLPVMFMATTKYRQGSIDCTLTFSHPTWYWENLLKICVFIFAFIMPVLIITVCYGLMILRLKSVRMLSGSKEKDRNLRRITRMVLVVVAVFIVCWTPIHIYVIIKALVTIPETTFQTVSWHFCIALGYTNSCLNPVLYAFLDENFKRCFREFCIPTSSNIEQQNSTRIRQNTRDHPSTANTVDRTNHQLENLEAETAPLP", "format": "functional, cell-based"}, "[11]": {"target": "NAD-dependent protein deacylase sirtuin-5, mitochondrial (Homo sapiens, UniProt Q9NXA8)", "test": "sirtuin-5 deacylation blockers, concentration series – biochemical, fluorescence imaging, cherry-pick, set 5, dose response (AID 720591);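 note: desuccinylation of succinyl peptide AMC substrate read as fluorescence after trypsin release; potency of inhibitors that lower fluorescence and may act on trypsin instead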"}, "[12]": {"target": "Beta-lactamase (Pseudomonas aeruginosa, UniProt Q79MP6)"}, "[13]": {"target": "T2, Zinc finger protein mex-5 (Caenorhabditis elegans, UniProt Q9XUB2)", "T2 sequence (Q9XUB2 whole entry)": "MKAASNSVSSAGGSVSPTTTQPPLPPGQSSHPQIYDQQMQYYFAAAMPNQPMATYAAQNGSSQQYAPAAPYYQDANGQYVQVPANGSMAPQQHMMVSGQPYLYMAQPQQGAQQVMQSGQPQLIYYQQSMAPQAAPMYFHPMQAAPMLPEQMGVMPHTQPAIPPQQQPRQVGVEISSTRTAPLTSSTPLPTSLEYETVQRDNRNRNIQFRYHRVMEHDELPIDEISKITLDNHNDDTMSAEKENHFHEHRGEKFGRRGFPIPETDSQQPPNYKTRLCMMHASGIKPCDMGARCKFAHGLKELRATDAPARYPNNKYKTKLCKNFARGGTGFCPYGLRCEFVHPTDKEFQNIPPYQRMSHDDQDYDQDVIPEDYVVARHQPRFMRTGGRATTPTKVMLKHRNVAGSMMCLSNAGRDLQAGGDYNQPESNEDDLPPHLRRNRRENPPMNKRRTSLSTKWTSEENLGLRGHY", "test": "potency of MEX-5 RNA-binding blockers – biochemical, C. elegans, fluorescence polarization, dose response (AID 1960)"}, "[14]": {"target": "T3, Polyadenylate-binding protein 1 (Homo sapiens, UniProt P11940)", "T3 sequence (P11940 whole entry)": "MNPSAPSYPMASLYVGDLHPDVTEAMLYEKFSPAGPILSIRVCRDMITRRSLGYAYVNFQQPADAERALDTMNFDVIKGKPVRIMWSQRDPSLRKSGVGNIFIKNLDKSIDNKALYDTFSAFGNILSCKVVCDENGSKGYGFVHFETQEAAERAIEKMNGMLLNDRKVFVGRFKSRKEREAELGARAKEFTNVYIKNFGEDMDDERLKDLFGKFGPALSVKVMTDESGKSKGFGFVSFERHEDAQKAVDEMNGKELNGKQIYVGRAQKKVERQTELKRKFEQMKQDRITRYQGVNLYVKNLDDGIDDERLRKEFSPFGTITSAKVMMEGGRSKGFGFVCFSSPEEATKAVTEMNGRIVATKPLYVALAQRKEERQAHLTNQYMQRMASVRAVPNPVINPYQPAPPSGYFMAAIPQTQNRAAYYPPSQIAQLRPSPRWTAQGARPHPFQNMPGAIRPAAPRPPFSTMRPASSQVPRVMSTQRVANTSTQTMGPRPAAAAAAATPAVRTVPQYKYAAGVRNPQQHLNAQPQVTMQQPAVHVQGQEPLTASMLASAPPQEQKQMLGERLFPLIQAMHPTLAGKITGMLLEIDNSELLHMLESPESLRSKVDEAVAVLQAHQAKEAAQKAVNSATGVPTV", "test": "MLLE binding blockers, Cy5 peptide tracer – biochemical, fluorescence polarization, Cy5-PAM2 peptide, secondary, miRNA deadenylation inhibitor project, dose response (AID 602260)", "format": "functional", "settings": "read-out: IC50_Mean"}, "[15]": {"target": "T4, RNA-binding protein pos-1 (Caenorhabditis elegans, UniProt G5EF15)", "T4 sequence (G5EF15 whole entry)": "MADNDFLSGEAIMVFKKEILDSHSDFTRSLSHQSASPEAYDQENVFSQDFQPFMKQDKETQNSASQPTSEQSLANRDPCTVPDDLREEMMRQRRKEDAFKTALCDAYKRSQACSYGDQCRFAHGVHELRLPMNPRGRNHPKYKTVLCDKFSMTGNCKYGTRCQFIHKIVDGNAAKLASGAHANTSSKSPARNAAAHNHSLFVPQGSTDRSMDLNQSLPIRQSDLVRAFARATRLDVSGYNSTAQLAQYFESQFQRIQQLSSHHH", "test": "disruptors of C. elegans POS-1 RNA interaction – biochemical, fluorescence polarization, dose response (AID 1964);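 note: purified POS-1 fused to maltose binding protein made in E. coli; potency of compounds blocking POS-1 binding to fluorescent RNA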"}, "[16]": {"target": "T3, Polyadenylate-binding protein 1", "test": "MLLE domain peptide-binding blockers, IC50 – biochemical, fluorescence polarization, FITC-PAM2 peptide, dose response (AID 602259)", "format": "functional", "settings": "read-out: IC50_Mean"}, "[17]": {"system": "H9c2", "test": "cells", "format": "functional, cell-based", "settings": "Rattus norvegicus, H9c2, Myocardium"}, "[18]": {"target": "Beta-lactamase (Salmonella choleraesuis (strain SC-B67), UniProt Q5J463)", "sequence (Q5J463 whole entry)": "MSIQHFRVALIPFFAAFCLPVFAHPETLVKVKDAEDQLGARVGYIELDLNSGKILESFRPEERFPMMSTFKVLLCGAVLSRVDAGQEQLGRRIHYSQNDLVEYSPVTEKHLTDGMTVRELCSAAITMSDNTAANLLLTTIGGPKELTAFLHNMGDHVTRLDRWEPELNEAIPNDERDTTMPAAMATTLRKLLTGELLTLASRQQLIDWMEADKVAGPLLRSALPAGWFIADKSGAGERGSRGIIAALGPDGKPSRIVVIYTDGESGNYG"}}, "note": "The source made the active and inactive calls.", "data": [{"smiles": "CC(C)(C)c1ccc(-c2nc(NCc3cccnc3)c3ccccc3n2)cc1", "values": [{"measurement": "IC50", "setting": "[1]", "value": "> 7.72 µM (active)"}, {"measurement": "IC50", "setting": "[2]", "value": "> 69.5 µM (inactive)"}]}, {"smiles": "O=C(CC(c1ccccc1)c1ccccc1)Nc1ccc2c(c1)OCCO2", "values": [{"measurement": "EC50", "setting": "[3]", "value": "33.6 µM (active)"}, {"measurement": "IC50", "setting": "[1]", "value": "> 69.5 µM (inactive)"}, {"measurement": "AC50", "setting": "[4]", "value": "20 µM (inconclusive)"}, {"measurement": "IC50", "setting": "[2]", "value": "> 69.5 µM (inactive)"}]}, {"smiles": "O=C(c1cc(-c2cccs2)nc2ccccc12)N1CCN(CCO)CC1", "values": [{"measurement": "EC50", "setting": "[5]", "value": "> 69.5 µM (inactive)"}]}, {"smiles": "O=c1c(-c2ccc(Br)cc2)coc2c(CN3CCOCC3)c(O)ccc12", "values": [{"measurement": "IC50", "setting": "[6]", "value": "> 100 µM (inactive)"}, {"measurement": "EC50", "setting": "[5]", "value": "66.1 µM (inactive)"}]}, {"smiles": "O=c1c2ccccc2sc2c(CO)ccc(NCCN3CCCCC3)c12", "values": [{"measurement": "EC50", "setting": "[7]", "value": "> 91.1 µM (inactive)"}, {"measurement": "EC50", "setting": "[8]", "value": "> 91.1 µM (inactive)"}, {"measurement": "AC50", "setting": "[4]", "value": "6.31 µM (inconclusive)"}]}, {"smiles": "CC(C)=CC(=O)N1CC[C@@H](N2CCN(c3ccccc3F)CC2)[C@H](O)C1", "values": [{"measurement": "EC50", "setting": "[9]", "value": "43.5 µM (inactive)"}, {"measurement": "EC50", "setting": "[10]", "value": "92.4 µM (inactive)"}]}, {"smiles": "COCC(C)n1c(C)cc(C(=O)COC(=O)CCc2nc(O)c3ccccc3n2)c1C", "note": "(configuration not stated)", "values": [{"measurement": "AC50", "setting": "[11]", "value": "> 30 µM (inactive)"}]}, {"smiles": "CCOC(=O)c1c2c3c(cccc3n(C)c1=O)C(=O)c1ccccc1-2", "values": [{"measurement": "IC50", "setting": "[12]", "value": "> 59.6 µM (inactive)"}, {"measurement": "EC50", "setting": "[13]", "value": "9.59 µM (active)"}, {"measurement": "IC50", "setting": "[14]", "value": "> 66 µM (inactive)"}, {"measurement": "EC50", "setting": "[15]", "value": "8.67 µM (inconclusive)"}, {"measurement": "IC50", "setting": "[16]", "value": "37.2 µM (inactive)"}, {"measurement": "IC50", "setting": "[17]", "value": "> 79 µM (inactive)"}, {"measurement": "IC50", "setting": "[18]", "value": "> 59.6 µM (inactive)"}]}]}
